PMC5612938, “A multiple biomarker assay for quality assessment of botanical drugs using a versatile microfluidic chip” (Scientific Reports, 2017)

Key:
[1] = target: T1, Thrombin (from human plasma) (Homo sapiens, UniProt P00734); assay: on-chip affinity screening, binding degree by LC-MS peak area vs protein-free control (thrombin); conditions: for thrombin; [(As − Ac)/As] × 100, sample vs protein-free control, EIC peak area
T1 construct: Thrombin (from human plasma); purchased Sigma-Aldrich; host or cells: human plasma
Excerpt: (§1) In addition to quality assessment, the microfluidic chip can also function as “affinity chromatography” to identify bioactive constituents from botanical drugs in a convenient and efficient manner. After the bioassay, the bound phytochemicals were dissociated from the enzymes and accurately identified by LC-MS. The material used for the chambers in microfluidic system, polydimethylsiloxane (PDMS), is apt to adsorb small molecules nonspecifically, thus a protein-free control was applied to reflect the degree of nonspecific binding of compounds to the chip. Peak areas were obtained from the extracted ion chromatography (EIC) in an ion-trap mass spectrometry (IT-MS), and binding degree (binding degree % = [(As − Ac)/As] × 100, where As and Ac were the peak area in the sample and control, respectively) was calculated to indicate binding specificity. […] All these peaks were unambiguously confirmed via comparisons with chemical standards in terms of retention time and mass spectra (Table 2), and five thrombin inhibitors (danshensu, salvianolic acid B, salvianolic acid C, rosmarinic acid and ginsenoside Rg1) and six ACE inhibitors (astragaloside IV, ononin, formononetin, calycosin, danshensu and salvianolic acid B) were preliminarily identified. […] Enzyme inhibition assays of these hit compounds were then performed to verify the screening results. […] Compounds showing an inhibition rate over 70% were subjected to IC50 measurement.
(§2) MBs (10 mg/mL) were diluted 10 times in PB or Tris-HCl buffer, and 10 μL of the diluted MBs (1 mg/mL) were injected into one channel of the chip using a syringe infusion pump (Harvard Apparatus, USA) and retained by an external magnet. Then, 10 μL of thrombin or ACE solution was added and incubated with MBs for two hours at room temperature to form enzyme-MB complexes. The magnet was manually controlled to move MBs back and forth to enhance the ratio of reaction. Subsequently, MBs were washed twice in assay buffer and magnetically transferred to the other channel through the fluidic bridge, whose opening and closing was controlled by a pneumatic valve. Next, 10 μL of sample solutions of tested drug and 10 μL of enzymatic substrate were sequentially infused to the channel by the pump and incubated with the enzyme. When the enzymatic reaction was finished, the MBs were retained in the channel, and air was injected into the channel from the inlet using a syringe to push all the reacted solution to a 384-well plate. The absorbance of the solution was then monitored at 405 nm (for S-2238) or 340 nm (for FAPGG) using an Infinite F200 spectrophotometer (Tecan, Männedorf, Switzerland). Moreover, after detection, the reaction channel was washed three times by assay buffer to remove unbound constituents. 20 μL of 80% aqueous methanol was then injected and incubated with MBs for one hour to dissociate the bound constituents. The resulting solutions of replicates were combined, evaporated by a centrifugal evaporator, reconstituted in 80% aqueous methanol, centrifuged at 10,000 rpm for 10 min, and analyzed by LC-MS for chemical identification.
An Agilent 1100 HPLC system (Agilent Technologies, Waldbronn, Germany) coupled with an LCQ Deca XP^plus IT-MS (Thermo Finnigan, San Jose, CA, USA) equipped with an electrospray ionization (ESI) interface was employed for structure elucidation of the bounded constituents. […]

[2] = target: T2, ACE (from rabbit lung) (Oryctolagus cuniculus, UniProt P12822); assay: on-chip affinity screening, binding degree by LC-MS peak area vs protein-free control (ACE); conditions: for ACE; [(As − Ac)/As] × 100, sample vs protein-free control, EIC peak area
T2 construct: ACE (from rabbit lung); purchased Sigma-Aldrich; host or cells: rabbit lung
T2 sequence (P12822 34-1310): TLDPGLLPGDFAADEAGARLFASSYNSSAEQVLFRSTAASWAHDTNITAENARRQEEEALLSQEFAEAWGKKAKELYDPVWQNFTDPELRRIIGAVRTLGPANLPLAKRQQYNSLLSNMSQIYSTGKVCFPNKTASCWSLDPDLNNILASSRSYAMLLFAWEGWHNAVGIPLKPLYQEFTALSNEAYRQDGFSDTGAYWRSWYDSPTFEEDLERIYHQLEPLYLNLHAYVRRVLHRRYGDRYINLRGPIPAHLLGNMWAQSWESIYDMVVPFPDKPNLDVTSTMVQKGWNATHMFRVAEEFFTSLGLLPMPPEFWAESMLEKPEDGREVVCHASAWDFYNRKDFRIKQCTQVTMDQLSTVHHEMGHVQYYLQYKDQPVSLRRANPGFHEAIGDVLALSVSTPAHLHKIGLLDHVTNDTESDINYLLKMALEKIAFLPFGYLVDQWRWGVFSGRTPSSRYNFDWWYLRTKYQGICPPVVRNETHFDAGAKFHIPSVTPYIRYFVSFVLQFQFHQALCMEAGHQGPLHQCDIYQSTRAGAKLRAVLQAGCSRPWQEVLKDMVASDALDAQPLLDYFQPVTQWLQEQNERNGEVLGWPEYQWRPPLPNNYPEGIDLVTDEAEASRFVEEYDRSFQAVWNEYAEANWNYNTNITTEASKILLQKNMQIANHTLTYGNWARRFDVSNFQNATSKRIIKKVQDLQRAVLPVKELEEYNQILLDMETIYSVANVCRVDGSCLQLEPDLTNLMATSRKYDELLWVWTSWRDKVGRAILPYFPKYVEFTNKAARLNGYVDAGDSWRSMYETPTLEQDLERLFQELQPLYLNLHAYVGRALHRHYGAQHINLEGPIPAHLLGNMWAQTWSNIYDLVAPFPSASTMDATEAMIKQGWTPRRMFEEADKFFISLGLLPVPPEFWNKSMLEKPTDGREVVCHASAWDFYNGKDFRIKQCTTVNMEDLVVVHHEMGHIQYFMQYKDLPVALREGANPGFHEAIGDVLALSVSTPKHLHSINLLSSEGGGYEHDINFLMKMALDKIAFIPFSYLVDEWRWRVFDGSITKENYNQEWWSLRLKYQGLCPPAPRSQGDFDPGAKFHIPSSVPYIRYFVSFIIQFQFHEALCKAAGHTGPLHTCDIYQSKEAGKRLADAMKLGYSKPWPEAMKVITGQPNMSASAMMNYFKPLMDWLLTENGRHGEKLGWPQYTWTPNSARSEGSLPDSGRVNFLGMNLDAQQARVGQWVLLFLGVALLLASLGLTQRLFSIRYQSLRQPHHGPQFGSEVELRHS
Excerpt: as §1, §2
An Agilent 1100 HPLC system (Agilent Technologies, Waldbronn, Germany) coupled with an LCQ Deca XP^plus IT-MS (Thermo Finnigan, San Jose, CA, USA) equipped with an electrospray ionization (ESI) interface was employed for structure elucidation of the bounded constituents. The analysis was performed in negative ionization mode under following operation parameters: scan range m/z 100–1500; capillary voltage −15 V; source voltage −3 kV; capillary temperature 350 °C; sheath gas (N2) 60 arb; auxiliary gas (N2) 20 arb.

Compound | Binding degree (%) [1] | Binding degree (%) [2]
O=C(O)C(O)Cc1ccc(O)c(O)c1 (stereo not shown) [Danshensu] | 50.9% | 57.2%
O=C(/C=C/c1ccc(O)c2c1[C@H](C(=O)O[C@H](Cc1ccc(O)c(O)c1)C(=O)O)[C@@H](c1ccc(O)c(O)c1)O2)O[C@H](Cc1ccc(O)c(O)c1)C(=O)O [Salvianolic acid B] | 34.9% | 41.3%
